Experimental data: article PMC8951016, “Computational Design and Biological Evaluation of Analogs of Lupin Peptide P5 Endowed with Dual PCSK9/HMG-CoAR Inhibiting Activity” (Pharmaceutics, 2022)
Read-outs that look alike come from different tables or passages of the source. No end group written: not given here.

Experiments:
PCSK9-LDLR [1] = target: T1, PCSK9-LDLR (Homo sapiens, UniProt Q8NBP7); conditions: cited from earlier work; for impairment of PCSK9-LDLR binding vs control: fixed concentration of 100 µM
T1 construct: purchased CycLex Co., Nagano, Japan (CircuLex)

LDLR = tested on: LDLR; design: method as in 3 sources, ref 48 = [48]; doi:10.1111/jfbc.12757; 48. Lammi C. Zanoni C. Arnoldi A. Aiello G. […] (P3), a peptide from lupin protein, absorbed by Caco-2 cells, modulates cholesterol metabolism in HepG2 cells via SREBP-1 activation J. Food B ||| ref 22 = [22]; doi:10.1016/j.jff.2017.02.009; 22. Zanoni C. Aiello G. Arnoldi A. Lammi C. Investigations on the hypocholesterolaemic activity of […] and LTFPGSAED, two peptides from lupin β-conglutin: Focus on LDLR and PCSK9 pathways J. Fu ||| ref 24 = [24]; PMID 33808034; doi:10.3390/nu13030863; 24. Lammi C. Aiello G. Bollati C. Li J. Bartolomei M. Ranaldi G. Ferruzza S. Fassi E.M.A. Grazioso G. Sambuy Y. Trans-Epithelial Transport, Metabolism, and Biological Activity Assessment of the Multi-; conditions: cellular level, through modulation of SREBP-2; cited from earlier work
PCSK9 = tested on: PCSK9; design: method as in 3 sources, ref 49 = [49]; PMID 35011066; doi:10.3390/nu14010193; 49. Macchi C. Greco M.F. Ferri N. Magni P. Arnoldi A. Corsini A. Sirtori C.R. Ruscica M. Lammi C. Impact of Soy β-Conglycinin Peptides on PCSK9 Protein Expression in HepG2 Cells Nutrients 2021 14 193 ||| ref 22 = [22]; doi:10.1016/j.jff.2017.02.009; 22. Zanoni C. Aiello G. Arnoldi A. Lammi C. Investigations on the hypocholesterolaemic activity of […] and LTFPGSAED, two peptides from lupin β-conglutin: Focus on LDLR and PCSK9 pathways J. Fu ||| ref 24 = [24]; PMID 33808034; doi:10.3390/nu13030863; 24. Lammi C. Aiello G. Bollati C. Li J. Bartolomei M. Ranaldi G. Ferruzza S. Fassi E.M.A. Grazioso G. Sambuy Y. Trans-Epithelial Transport, Metabolism, and Biological Activity Assessment of the Multi-; conditions: cellular level, through modulation of HNF-1α; cited from earlier work
[2] = target: T2, HMG-CoAR (catalytic domain) (Homo sapiens, UniProt P04035); conditions: metabolite; read-out: IC50, HMG-CoAR activity (P5-met); cited from earlier work
T2 construct: finally the HMG-CoAR (cata- lytic domain) (2 µL); purchased Sigma-Aldrich
T2 sequence (P04035 426-888 limits assumed): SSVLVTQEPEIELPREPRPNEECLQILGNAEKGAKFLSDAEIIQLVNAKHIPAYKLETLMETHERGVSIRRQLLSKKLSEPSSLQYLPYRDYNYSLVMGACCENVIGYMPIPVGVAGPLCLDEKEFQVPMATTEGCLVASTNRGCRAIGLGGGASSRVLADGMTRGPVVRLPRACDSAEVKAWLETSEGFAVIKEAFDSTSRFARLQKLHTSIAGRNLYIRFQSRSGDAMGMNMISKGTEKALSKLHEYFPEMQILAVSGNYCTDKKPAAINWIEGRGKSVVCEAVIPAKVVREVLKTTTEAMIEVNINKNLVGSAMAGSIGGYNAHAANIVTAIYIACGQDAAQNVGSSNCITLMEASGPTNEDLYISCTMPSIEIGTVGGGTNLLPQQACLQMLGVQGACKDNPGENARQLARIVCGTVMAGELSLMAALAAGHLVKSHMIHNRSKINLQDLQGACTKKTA

[3] = target: T2, HMG-CoAR (catalytic domain); assay: HMG-CoAR activity assay; format: biochemical; conditions: 10–500 µM, 37 °C, NADPH oxidation, absorbance 340 nm at 0 and 10 min; four independent experiments in duplicate
Procedure: The experiments were carried out following the manufacturer instructions and optimized protocol. See Supplementary Materials for further details. […]
cLex Co., Nagano, Japan). The peptides (P5, P5-Best, P-H6A, and P5-S7A) were synthe-sized by the company GeneScript (Piscataway, NJ, USA) at >95% purity. The antibody against HMG-CoAR was bought from Abcam (Cambridge, UK). Phenylmethanesulfonyl fluoride (PMSF), Na-orthovanadate inhibitors, and the antibodies against rabbit Ig-horse-radish peroxidase (HRP), mouse Ig-HRP, and SREBP-2 (which recognizes epitope located in a region between 833–1141 and bands at about 132 kDa) were purchased from Santa Cruz Biotechnology Inc. (Santa Cruz, CA, USA). The antibodies against hepatocyte nu-clear factor 1-alpha (HNF1-alpha) and PCSK9 were bought from GeneTex (Irvine, CA, USA). The inhibitor cocktail Complete Midi was from Roche (Basel, Switzerland). Mini protean TGX pre-cast gel 7.5% and Mini nitrocellulose Transfer Packs were purchased from BioRad (Hercules, CA, USA).
HepG2 Cell Culture Conditions and Treatment. The HepG2 cell line was bought from ATCC (HB-8065, ATCC from LGC Standards, Milan, Italy) and was cultured in DMEM high glucose with stable L-glutamine, supplemented with 10% FBS, 100 U/mL penicillin, 100 µg/mL streptomycin (complete growth medium) with incubation at 37 °C […]
HMG-CoAR Aactivity Assay. The experiments were carried out following the man-ufacturer instructions and optimized protocol. The assay buffer, NADPH, substrate solution, and HMG-CoAR were provided in the HMG-CoAR Assay Kit (Sigma Aldrich SRL, Milan, Italy). […] Subsequently, the samples were mixed and the absorbance at 340 nm read by the microplate reader Synergy H1 (Winooski, VT, USA) at time 0 and 10 min. The HMG-CoAR-dependent oxidation of NADPH and the inhibition properties of peptides were measured by absorbance reduction, which is directly proportional to enzyme activ- […]
(§1) In Vitro PCSK9-LDLR Binding Assay. […] The reaction was stopped with 2.0 M sulfuric acid and the absorbance at 450nm was measured using the Synergy H1 fluorescent plate reader […]

PCSK9-LDLR [4] = target: T1, PCSK9-LDLR; assay: In vitro PCSK9-LDLR binding assay; conditions: 0.1–100 µM, LDLR-AB coated plate, 2 h at RT, absorbance 450 nm; four independent experiments in duplicate
Procedure: Peptides P5 and P5 analogs (0.1–100 µM) were tested using the in vitro PCSK9-LDLR binding assay (CycLex Co., Nagano, Japan) following the manufacture instructions and conditions already optimized. Further details are provided in Supplementary Materials. […]
cLex Co., Nagano, Japan). The peptides (P5, P5-Best, P-H6A, and P5-S7A) were synthe-sized by the company GeneScript (Piscataway, NJ, USA) at >95% purity. The antibody against HMG-CoAR was bought from Abcam (Cambridge, UK). Phenylmethanesulfonyl fluoride (PMSF), Na-orthovanadate inhibitors, and the antibodies against rabbit Ig-horse-radish peroxidase (HRP), mouse Ig-HRP, and SREBP-2 (which recognizes epitope located in a region between 833–1141 and bands at about 132 kDa) were purchased from Santa Cruz Biotechnology Inc. (Santa Cruz, CA, USA). […]
HMG-CoAR Aactivity Assay. […] Subsequently, the samples were mixed and the absorbance at 340 nm read by the microplate reader Synergy H1 (Winooski, VT, USA) at time 0 and 10 min. The HMG-CoAR-dependent oxidation of NADPH and the inhibition properties of peptides were measured by absorbance reduction, which is directly proportional to enzyme activ- […]
as §1

[5] = read-out: IC50, PCSK9-LDLR binding (Pep2-8 analogs)

T1 sequence (Q8NBP7 153-692): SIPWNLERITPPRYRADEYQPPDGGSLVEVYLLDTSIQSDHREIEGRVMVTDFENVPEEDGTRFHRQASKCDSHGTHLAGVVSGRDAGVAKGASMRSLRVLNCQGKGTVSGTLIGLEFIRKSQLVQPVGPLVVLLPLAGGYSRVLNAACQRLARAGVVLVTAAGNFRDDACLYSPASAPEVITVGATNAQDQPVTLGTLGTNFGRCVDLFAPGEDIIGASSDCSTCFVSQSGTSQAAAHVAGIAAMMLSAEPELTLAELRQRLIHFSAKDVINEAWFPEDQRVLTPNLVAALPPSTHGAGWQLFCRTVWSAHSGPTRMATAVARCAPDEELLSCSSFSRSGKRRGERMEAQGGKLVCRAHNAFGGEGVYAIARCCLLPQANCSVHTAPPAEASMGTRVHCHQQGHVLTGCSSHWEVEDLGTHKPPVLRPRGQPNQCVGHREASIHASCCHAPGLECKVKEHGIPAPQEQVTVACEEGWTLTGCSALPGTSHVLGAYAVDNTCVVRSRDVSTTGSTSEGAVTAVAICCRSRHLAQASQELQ
T1 sequence (Q8NBP7 31-152 partner limits assumed): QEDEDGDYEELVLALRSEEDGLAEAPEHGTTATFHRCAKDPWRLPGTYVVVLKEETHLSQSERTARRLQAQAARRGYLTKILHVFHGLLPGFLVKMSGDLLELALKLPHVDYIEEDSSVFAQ

| Substance | IC50 [3] | IC50 (PCSK9-LDLR [4]) | impairment of PCSK9-LDLR binding vs control (PCSK9-LDLR [1]) | IC50 (PCSK9-LDLR [1]; [5]) | other results |
| --- | --- | --- | --- | --- | --- |
| [T4R,W12Y]Pep2-8: analog of peptide Pep2-8 (TVFRSWEEYLDYV) |  |  | −93.0% | 14.5 ± 1.3 µM |  |
| LPKHSDAD [Peptide P5-met, breakdown fragment (metabolite) of P5] |  |  |  |  | LDLR level (P5-met, words) (LDLR): improves the LDLR; IC50 (PCSK9-LDLR [1]; metabolite, read-out: IC50, PCSK9-LDLR binding (P5-met)): 1.7 µM; PCSK9 level (P5-met, words) (PCSK9): reduces PCSK9 levels; IC50 [2]: 175 µM |
| [Y9A]Pep2-8: analog of peptide Pep2-8 (TVFTSWEEALDWV) |  |  | −69.8% | 27.1 ± 1.2 µM |  |
| LYLPKHSDRD [Peptide P5-Best] | 88.9 µM |  |  |  |  |

Further lines, with some results ahead:

| IC50 [3] | IC50 (PCSK9-LDLR [4]) | Substance | impairment of PCSK9-LDLR binding vs control (PCSK9-LDLR [1]) | IC50 (PCSK9-LDLR [1]; [5]) | other results |
| --- | --- | --- | --- | --- | --- |
| 74.4 µM | 9 µM | LILPKASDAD [Peptide P5-H6A] |  |  |  |
| 73.8 µM | 1.45 µM | LILPKHADAD [Peptide P5-S7A] |  |  |  |
